The values that follow come from patent US11358949B2, “Carbamate and urea compounds as multikinase inhibitors” (ANGEX PHARMACEUTICAL, INC., priority 2017, dated 2022).

As usually defined, the IC50 is the concentration needed to halve the response being measured. A low value points to greater potency.

One test concerns the target T1, c-MER (Homo sapiens, UniProt Q12866).
T1 sequence (Q12866 21-999): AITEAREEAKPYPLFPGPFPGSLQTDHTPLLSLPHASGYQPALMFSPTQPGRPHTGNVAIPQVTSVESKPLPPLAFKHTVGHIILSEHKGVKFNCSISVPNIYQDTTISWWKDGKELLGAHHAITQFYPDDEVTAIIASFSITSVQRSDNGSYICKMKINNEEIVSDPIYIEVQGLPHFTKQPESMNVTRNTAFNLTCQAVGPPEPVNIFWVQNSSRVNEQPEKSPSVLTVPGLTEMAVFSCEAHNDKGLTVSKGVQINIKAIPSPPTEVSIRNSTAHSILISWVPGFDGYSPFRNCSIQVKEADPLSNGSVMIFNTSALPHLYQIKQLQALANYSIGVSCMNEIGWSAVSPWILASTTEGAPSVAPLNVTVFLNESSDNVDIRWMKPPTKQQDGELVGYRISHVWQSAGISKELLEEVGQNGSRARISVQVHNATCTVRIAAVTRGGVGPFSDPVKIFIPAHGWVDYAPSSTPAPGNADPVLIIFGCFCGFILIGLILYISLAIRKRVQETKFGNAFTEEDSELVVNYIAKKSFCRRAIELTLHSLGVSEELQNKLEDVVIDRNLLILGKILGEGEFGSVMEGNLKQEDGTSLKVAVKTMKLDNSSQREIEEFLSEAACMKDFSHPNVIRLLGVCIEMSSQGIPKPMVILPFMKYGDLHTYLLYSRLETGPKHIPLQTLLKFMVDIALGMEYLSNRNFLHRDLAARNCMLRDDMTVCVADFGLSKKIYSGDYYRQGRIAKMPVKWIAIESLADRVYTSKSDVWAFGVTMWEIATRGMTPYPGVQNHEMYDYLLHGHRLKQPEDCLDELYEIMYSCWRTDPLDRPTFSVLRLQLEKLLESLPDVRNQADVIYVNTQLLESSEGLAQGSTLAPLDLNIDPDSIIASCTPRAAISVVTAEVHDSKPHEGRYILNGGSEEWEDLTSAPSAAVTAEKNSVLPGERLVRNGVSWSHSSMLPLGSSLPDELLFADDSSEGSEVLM
Description: HotSpot Kinase Assay, c-MER.

The target of a further test is T2, TYRO3/SKY (Homo sapiens, UniProt Q06418).
T2 sequence (Q06418 41-890): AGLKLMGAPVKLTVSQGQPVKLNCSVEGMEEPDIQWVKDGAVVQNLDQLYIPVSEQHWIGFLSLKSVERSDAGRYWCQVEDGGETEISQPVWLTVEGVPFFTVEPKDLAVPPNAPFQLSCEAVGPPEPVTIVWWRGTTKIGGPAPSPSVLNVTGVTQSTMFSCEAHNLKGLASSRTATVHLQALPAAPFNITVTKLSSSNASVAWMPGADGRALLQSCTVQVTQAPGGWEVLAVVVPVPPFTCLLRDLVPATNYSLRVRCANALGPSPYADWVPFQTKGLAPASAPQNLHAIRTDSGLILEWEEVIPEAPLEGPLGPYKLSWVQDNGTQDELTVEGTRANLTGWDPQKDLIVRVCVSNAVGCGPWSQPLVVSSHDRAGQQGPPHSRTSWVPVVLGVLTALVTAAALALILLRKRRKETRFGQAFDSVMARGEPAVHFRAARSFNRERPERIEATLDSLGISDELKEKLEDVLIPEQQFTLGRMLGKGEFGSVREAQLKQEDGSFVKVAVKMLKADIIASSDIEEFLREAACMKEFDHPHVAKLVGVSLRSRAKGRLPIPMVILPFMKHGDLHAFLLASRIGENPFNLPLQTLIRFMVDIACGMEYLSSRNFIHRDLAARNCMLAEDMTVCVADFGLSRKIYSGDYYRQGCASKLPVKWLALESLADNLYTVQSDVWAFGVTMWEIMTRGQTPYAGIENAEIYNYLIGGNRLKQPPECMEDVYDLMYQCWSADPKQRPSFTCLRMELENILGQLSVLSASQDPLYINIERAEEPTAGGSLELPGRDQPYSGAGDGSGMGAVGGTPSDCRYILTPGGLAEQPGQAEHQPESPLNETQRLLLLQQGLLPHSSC
In words: HotSpot Kinase Assay, TYRO3/SKY.

The target of the next test is DDR1 (Homo sapiens, UniProt Q08345). Description: HotSpot Kinase Assay, DDR1.
A further test concerns the target KDR/VEGFR2 (Homo sapiens, UniProt P35968). Description: HotSpot Kinase Assay, KDR/VEGFR2.
The target in the next test is T3, AXL (Homo sapiens, UniProt P30530).
T3 sequence (P30530 26-894): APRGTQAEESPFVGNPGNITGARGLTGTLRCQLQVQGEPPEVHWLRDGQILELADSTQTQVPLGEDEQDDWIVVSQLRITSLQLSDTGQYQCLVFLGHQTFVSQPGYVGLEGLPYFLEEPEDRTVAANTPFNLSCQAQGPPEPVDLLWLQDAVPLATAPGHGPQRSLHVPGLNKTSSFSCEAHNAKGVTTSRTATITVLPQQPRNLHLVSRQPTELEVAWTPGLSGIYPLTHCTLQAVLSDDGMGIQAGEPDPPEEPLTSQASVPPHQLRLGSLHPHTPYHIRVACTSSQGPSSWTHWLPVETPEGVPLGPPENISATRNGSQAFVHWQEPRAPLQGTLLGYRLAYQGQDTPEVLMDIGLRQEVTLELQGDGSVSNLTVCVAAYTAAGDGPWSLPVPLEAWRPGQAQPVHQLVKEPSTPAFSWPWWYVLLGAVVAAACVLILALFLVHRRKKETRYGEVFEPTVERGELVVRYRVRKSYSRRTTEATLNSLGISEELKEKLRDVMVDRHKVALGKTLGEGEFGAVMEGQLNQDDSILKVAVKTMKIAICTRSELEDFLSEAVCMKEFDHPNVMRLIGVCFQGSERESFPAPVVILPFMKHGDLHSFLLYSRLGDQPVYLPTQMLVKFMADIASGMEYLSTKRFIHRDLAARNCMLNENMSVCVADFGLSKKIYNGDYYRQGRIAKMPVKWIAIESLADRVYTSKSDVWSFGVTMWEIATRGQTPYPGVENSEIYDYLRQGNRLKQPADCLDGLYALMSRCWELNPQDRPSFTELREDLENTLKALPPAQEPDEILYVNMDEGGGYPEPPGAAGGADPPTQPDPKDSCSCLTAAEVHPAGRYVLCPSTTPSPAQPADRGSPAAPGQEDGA
In words: HotSpot Kinase Assay, AXL.

The next test addresses FMS (Homo sapiens, UniProt P07333). In words: HotSpot Kinase Assay, FMS.
Another test concerns the target c-MET (Homo sapiens, UniProt P08581). In words: HotSpot Kinase Assay, c-MET.
The target in the next test is LOK/STK10 (Homo sapiens, UniProt O94804). In words: HotSpot Kinase Assay, LOK/STK10.
The target of a further test is c-Kit (Homo sapiens, UniProt P10721). In words: HotSpot Kinase Assay, c-Kit.
A further test has as its target EPHA2 (Homo sapiens, UniProt P29317). Description: HotSpot Kinase Assay, EPHA2.

Chain of FMS (P07333 20-972): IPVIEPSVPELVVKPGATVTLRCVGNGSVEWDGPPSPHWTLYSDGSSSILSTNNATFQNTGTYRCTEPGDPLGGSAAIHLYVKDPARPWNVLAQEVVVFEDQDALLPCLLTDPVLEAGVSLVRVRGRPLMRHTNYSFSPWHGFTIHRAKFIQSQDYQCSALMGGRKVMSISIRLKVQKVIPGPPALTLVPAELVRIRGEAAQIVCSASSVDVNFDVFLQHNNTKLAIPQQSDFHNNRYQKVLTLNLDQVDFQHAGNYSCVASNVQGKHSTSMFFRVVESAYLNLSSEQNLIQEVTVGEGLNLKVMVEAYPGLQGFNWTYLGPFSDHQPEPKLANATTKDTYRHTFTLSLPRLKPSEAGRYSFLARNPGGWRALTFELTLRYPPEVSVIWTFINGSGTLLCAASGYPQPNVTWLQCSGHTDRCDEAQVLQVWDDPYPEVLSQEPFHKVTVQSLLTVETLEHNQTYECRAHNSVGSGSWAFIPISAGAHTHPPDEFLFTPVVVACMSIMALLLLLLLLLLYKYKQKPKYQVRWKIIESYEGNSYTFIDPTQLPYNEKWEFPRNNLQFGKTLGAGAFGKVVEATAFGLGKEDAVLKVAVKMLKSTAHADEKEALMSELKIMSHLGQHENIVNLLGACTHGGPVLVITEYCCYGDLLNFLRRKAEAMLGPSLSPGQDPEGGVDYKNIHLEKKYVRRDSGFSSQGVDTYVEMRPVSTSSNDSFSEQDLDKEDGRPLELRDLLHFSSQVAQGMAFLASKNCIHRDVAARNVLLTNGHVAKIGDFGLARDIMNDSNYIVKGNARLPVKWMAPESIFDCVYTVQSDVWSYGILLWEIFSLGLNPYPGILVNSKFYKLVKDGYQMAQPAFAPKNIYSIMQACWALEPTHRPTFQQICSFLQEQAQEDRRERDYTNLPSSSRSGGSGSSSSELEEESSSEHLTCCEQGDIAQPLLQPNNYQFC
Chain of c-MET (P08581 25-1390): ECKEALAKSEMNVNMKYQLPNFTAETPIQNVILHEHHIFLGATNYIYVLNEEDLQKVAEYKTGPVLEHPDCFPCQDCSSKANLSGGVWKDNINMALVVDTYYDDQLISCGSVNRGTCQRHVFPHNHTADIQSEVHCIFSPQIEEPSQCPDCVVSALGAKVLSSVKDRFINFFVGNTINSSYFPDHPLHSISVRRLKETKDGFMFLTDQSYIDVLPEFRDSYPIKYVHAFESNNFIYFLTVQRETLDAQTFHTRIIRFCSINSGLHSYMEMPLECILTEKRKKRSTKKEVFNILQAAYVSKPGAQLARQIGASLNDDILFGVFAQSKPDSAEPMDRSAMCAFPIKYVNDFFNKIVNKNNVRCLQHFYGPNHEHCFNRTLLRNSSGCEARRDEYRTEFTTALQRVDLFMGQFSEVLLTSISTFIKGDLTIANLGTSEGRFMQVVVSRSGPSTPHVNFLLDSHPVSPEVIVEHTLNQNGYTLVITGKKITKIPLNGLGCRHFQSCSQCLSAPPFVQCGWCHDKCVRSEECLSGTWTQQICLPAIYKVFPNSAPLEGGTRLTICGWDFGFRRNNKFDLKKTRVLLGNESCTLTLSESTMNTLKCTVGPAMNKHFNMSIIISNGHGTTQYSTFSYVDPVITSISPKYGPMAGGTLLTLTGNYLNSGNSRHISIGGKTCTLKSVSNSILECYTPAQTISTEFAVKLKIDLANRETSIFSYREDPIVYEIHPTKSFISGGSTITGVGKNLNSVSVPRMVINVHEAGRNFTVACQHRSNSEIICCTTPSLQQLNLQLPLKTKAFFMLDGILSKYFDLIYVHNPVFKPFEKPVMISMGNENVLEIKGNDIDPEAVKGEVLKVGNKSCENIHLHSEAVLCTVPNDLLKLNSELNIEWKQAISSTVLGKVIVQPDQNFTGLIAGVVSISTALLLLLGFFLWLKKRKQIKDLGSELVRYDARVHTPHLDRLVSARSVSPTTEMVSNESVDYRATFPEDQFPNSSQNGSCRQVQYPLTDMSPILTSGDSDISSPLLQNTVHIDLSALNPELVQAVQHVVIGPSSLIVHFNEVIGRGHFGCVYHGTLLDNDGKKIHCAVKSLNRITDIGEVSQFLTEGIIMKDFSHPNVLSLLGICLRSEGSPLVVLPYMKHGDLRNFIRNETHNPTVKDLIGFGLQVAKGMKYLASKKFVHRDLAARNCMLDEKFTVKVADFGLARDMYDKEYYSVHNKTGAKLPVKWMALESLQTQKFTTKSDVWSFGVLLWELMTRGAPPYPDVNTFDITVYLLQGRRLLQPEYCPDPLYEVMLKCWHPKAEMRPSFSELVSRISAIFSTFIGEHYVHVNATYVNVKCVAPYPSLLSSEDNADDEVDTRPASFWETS
Chain of EPHA2 (P29317 24-976): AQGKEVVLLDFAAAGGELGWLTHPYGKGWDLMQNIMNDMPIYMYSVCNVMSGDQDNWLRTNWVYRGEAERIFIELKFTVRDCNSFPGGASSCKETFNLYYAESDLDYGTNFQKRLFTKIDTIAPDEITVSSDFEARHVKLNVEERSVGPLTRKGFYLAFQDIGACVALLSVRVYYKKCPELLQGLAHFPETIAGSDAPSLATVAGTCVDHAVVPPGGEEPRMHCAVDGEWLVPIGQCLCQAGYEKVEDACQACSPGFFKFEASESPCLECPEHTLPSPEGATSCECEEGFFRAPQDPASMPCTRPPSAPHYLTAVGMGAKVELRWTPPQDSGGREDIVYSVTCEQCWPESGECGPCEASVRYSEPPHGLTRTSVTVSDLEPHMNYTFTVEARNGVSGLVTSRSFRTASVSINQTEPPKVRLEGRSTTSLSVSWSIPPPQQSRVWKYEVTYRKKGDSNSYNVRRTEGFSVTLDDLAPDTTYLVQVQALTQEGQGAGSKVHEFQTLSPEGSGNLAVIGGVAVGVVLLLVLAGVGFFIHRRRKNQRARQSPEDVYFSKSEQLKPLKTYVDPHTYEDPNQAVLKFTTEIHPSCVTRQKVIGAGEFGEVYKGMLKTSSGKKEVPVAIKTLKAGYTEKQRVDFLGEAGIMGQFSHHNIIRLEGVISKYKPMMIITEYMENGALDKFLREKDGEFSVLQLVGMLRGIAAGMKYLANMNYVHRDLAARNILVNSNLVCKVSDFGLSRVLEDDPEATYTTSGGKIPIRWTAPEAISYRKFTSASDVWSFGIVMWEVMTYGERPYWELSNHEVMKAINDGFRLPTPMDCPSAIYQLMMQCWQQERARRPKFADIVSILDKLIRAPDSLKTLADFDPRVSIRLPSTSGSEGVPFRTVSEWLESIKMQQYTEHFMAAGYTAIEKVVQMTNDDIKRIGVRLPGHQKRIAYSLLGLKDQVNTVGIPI
Chain of c-Kit (P10721 26-976): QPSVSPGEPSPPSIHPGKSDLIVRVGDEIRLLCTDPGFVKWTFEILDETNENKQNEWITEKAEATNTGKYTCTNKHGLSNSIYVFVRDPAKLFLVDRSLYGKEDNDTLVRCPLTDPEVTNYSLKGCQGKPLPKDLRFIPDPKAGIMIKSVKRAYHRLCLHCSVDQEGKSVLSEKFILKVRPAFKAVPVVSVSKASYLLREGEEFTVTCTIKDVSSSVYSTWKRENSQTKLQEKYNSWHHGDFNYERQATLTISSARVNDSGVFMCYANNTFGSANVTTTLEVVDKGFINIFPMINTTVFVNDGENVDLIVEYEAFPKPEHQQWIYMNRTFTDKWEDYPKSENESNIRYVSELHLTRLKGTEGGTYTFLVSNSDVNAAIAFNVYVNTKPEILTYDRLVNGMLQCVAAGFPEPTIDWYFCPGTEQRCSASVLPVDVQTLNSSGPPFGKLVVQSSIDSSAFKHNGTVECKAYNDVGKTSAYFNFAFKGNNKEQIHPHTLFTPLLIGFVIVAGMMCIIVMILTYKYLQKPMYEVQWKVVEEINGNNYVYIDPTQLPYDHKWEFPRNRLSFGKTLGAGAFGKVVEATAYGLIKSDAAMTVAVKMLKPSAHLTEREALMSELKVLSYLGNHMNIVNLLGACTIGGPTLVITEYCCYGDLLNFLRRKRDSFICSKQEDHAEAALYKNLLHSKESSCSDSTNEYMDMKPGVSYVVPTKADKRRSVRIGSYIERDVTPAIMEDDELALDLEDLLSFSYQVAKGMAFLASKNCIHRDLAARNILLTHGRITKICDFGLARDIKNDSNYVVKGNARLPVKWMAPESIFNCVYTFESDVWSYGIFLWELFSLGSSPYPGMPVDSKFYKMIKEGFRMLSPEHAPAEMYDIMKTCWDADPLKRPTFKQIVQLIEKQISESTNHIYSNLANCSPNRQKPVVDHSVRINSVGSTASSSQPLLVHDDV
Chain of DDR1 (Q08345 19-913): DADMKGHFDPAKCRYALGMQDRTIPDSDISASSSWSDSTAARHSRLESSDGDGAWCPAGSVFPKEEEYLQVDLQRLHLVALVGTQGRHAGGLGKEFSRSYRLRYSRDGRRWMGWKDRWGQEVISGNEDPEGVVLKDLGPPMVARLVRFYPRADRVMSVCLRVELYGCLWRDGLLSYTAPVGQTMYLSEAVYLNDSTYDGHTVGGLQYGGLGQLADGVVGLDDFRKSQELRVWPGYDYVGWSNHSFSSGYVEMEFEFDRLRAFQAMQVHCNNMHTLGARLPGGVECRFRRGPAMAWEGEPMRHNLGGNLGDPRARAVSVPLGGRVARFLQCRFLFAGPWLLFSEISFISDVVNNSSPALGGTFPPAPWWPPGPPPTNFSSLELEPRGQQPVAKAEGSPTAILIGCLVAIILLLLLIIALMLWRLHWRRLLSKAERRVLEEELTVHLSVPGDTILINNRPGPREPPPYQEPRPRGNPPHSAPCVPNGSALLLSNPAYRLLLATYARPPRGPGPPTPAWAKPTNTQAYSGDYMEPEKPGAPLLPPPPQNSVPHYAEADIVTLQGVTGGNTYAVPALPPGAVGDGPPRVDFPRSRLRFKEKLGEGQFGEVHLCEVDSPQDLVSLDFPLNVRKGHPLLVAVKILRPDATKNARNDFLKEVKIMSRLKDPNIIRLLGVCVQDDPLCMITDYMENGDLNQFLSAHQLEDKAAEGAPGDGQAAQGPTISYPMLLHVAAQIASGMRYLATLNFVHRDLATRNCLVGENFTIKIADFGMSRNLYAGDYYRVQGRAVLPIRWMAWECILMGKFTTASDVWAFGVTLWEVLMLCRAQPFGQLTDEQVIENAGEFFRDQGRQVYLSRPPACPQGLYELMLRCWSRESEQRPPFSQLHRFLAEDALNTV
Description for AXL: (§1) Specifically, for each reaction, kinase and substrate were mixed in a pH 7.5 buffer containing 20 mM HEPES, 10 mM MgCl2, 1 mM EGTA [Ethylene glycol-bis(2-aminoethylether)-N,N,N′,N′-tetraacetic acid], 0.02% Brij35, 0.02 mg/mL BSA (Bovine Serum Albumin), 0.1 mM Na3VO4, 2 mM DTT, and 1% DMSO. Compounds were then added to each reaction mixture. After a 20-min incubation, ATP (Sigma-Aldrich) and [γ-^33P] ATP (PerkinElmer) were added at a final total concentration of 100 μM. Reactions were carried out at room temperature for 2 hours and spotted onto P81 ion exchange cellulose chromatography paper (Whatman). […] The percent remaining kinase activity relative to a vehicle-containing (DMSO) kinase reaction was calculated for each kinase/inhibitor pair. […] IC50 values were calculated using Prism 5 (GraphPad).
Description for DDR1: as §1
Description for FMS: as §1
Description for KDR/VEGFR2: as §1
Description for LOK/STK10: as §1
Description for c-Kit: as §1
Description for c-MET: as §1

For `COc1cc2c(Oc3ccc(NC(=O)C4(C(=O)Nc5ccc(F)cc5)CC4)cc3)ncnc2cc1OC(=O)N1CCNC[C@H]1C` [Compound 8-5], the half-inhibitory concentration (IC50) on c-MER was 0.1 to 1 µM; against TYRO3/SKY, 0.1 to 1 µM; against DDR1, less than 0.1 µM; against KDR/VEGFR2, more than 1 µM; against AXL, 0.1 to 1 µM; against FMS, 0.1 to 1 µM. Besides, the 50% inhibitory concentration (IC50) at c-MET was 0.1 to 1 µM; against LOK/STK10 it was more than 1 µM; against c-Kit, less than 0.1 µM; against EPHA2, more than 1 µM.
As for `COc1cc2c(Oc3ccc(NC(=O)C4(C(=O)Nc5ccc(F)cc5)CC4)cc3)ncnc2cc1OC(=O)N1CCN(C)C[C@H]1C` [Compound 8-6, 4-(4-(1-((4-fluorophenyl)carbamoyl)cyclopropane-1-carboxamido)phenoxy)-6-methoxyquinazolin-7-yl (R)-2,4-methylpiperazine-1-carboxylate], the IC50 was 0.1 to 1 µM at c-MER; 0.1 to 1 µM against TYRO3/SKY; less than 0.1 µM against DDR1; more than 1 µM on KDR/VEGFR2; 0.1 to 1 µM on AXL; 0.1 to 1 µM on FMS. In addition, the IC50 against c-MET is 0.1 to 1 µM; on LOK/STK10, more than 1 µM; against c-Kit it was 0.1 to 1 µM; at EPHA2, more than 1 µM.
As for `COc1cc2c(Oc3ccc(NC(=O)C4(C(=O)Nc5ccc(F)cc5)CC4)cc3F)ncnc2cc1OC(=O)N1CCNC[C@H]1C` [Compound 9-5], the IC50 was 0.1 to 1 µM against c-MER; 0.1 to 1 µM at TYRO3/SKY; less than 0.1 µM against DDR1; 0.1 to 1 µM at KDR/VEGFR2; less than 0.1 µM on AXL; 0.1 to 1 µM against FMS. Besides, the IC50 at c-MET is less than 0.1 µM; at LOK/STK10 it was 0.1 to 1 µM; on c-Kit, 0.1 to 1 µM; against EPHA2 it was 0.1 to 1 µM.
In the case of `COc1cc2c(Oc3ccc(NC(=O)C4(C(=O)Nc5ccc(F)cc5)CC4)cc3F)ncnc2cc1OC(=O)N1CCN(C)C[C@H]1C` [Compound 9-6, 4-(2-fluoro-4-(1-((4-fluorophenyl)carbamoyl)cyclopropane-1-carboxamido)phenoxy)-6-methoxyquinazolin-7-yl (R)-2,4-methylpiperazine-1-carboxylate], the IC50 on c-MER is less than 0.1 µM; on TYRO3/SKY, 0.1 to 1 µM; against DDR1, less than 0.1 µM; against KDR/VEGFR2 it was 0.1 to 1 µM; against AXL it was less than 0.1 µM; at FMS, 0.1 to 1 µM. The half-maximal inhibitory concentration (IC50) is less than 0.1 µM on c-MET, more than 1 µM against LOK/STK10, 0.1 to 1 µM at c-Kit and 0.1 to 1 µM against EPHA2.
With `COc1cc2c(Oc3ccc(NC(=O)C4(C(=O)Nc5ccc(F)cc5)CC4)cc3)ccnc2cc1N1CCNC1=O` [Compound 10-2], the 50% inhibitory concentration (IC50) on c-MER was less than 0.1 µM; against TYRO3/SKY it was 0.1 to 1 µM; on DDR1, less than 0.1 µM; on KDR/VEGFR2, 0.1 to 1 µM; against AXL it was less than 0.1 µM; against FMS, less than 0.1 µM. Further, the IC50 on c-MET was less than 0.1 µM; on LOK/STK10 it was 0.1 to 1 µM; against c-Kit it was less than 0.1 µM; against EPHA2, 0.1 to 1 µM.
